Measurements taken from patent publication US8084479B2, “Thiazole compounds and methods of use” (Amgen Inc., priority 2006, dated 2011).

Biological target: PKBα (Homo sapiens, UniProt P31749)
Assay: PKB kinase assay (P33-labeled ATP, peptide substrate, filter plate)
Format: biochemical
Details: PKBα enzyme (full length or kinase domain with pleckstrin domain deleted)
Text: The kinase assay for evaluating PKB activity comprises active PKB enzymes, a PKB specific substrate, and P^33-labeled ATP. […] The phosphorylated substrate was captured by a phosphocellulose membrane filter plate (MLLIPORE) and measured by a Wallac Microbeta liquid scintillation counter (Perkin Elmer).

Chain of PKBα (P31749 118-480 limits assumed): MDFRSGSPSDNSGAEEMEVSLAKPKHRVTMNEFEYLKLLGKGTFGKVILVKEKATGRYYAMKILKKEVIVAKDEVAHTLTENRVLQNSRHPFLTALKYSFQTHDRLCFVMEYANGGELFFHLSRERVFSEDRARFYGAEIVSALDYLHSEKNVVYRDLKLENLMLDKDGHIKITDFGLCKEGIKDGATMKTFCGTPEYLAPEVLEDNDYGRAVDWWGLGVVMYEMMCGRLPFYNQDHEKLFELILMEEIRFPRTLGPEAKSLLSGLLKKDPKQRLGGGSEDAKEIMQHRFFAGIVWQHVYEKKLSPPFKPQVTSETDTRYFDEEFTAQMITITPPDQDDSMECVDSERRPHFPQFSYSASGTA

In the case of `N[C@H](CNc1ncc(-c2nc3ccncc3s2)s1)Cc1ccc(Cl)cc1` [Example 99, N—((S)-2-Amino-3-(4-chlorophenyl)propyl)-5-(thiazolo[5,4-c]pyridin-2-yl)thiazol-2-amine], the IC50 is reported as less than 50 nM.

`N[C@H](CNc1nc(-c2cccc(F)c2F)c(-c2ccc3cnccc3c2)s1)Cc1ccc(C(F)(F)F)cc1` [Example 100, N—((S)-2-Amino-3-(4-(trifluoromethyl)phenyl)propyl)-4-(2,3-difluorophenyl)-5-(isoquinolin-6-yl)thiazol-2-amine] was tested, and the IC50 was 50 to 1000 nM.

Work on `N[C@H](CNc1nc(-c2ccc(F)c(F)c2)c(-c2ccc3cnccc3c2)s1)Cc1ccc(C(F)(F)F)cc1` [Example 101, N—((S)-2-Amino-3-(4-(trifluoromethyl)phenyl)propyl)-4-(3,4-difluorophenyl)-5-(isoquinolin-6-yl)thiazol-2-amine] yielded an IC50 of 50 to 1000 nM.

Compound `N[C@H](CNc1nc(-c2ccc(F)cc2)c(-c2ccc3cnccc3c2)s1)Cc1ccc(C(F)(F)F)cc1` [Example 102, N—((S)-2-Amino-3-(4-(trifluoromethyl)phenyl)propyl)-4-(4-fluorophenyl)-5-(isoquinolin-6-yl)thiazol-2-amine] has an IC50 of 50 to 1000 nM.

`N[C@H](CNc1nc(-c2cccc(F)c2)c(-c2ccc3cnccc3c2)s1)Cc1ccc(C(F)(F)F)cc1` [Example 103, N—((S)-2-amino-3-(4-(trifluoromethyl)phenyl)propyl)-4-(3-fluorophenyl)-5-(isoquinolin-6-yl)thiazol-2-amine] was tested, and the IC50 was 50 to 1000 nM.

Compound `N[C@H](CNc1nc(-c2cccnc2)c(-c2ccc3cnccc3c2)s1)Cc1ccc(C(F)(F)F)cc1` [Example 104, N—((S)-2-Amino-3-(4-(trifluoromethyl)phenyl)propyl)-5-(isoquinolin-6-yl)-4-(pyridin-3-yl)thiazol-2-amine] has an IC50 of 50 to 1000 nM.

`N[C@H](CNc1nc(-c2ccccc2F)c(-c2ccc3cnccc3c2)s1)Cc1ccc(C(F)(F)F)cc1` [Example 105, N—((S)-2-Amino-3-(4-(trifluoromethyl)phenyl)propyl)-4-(2-fluorophenyl)-5-(isoquinolin-6-yl)thiazol-2-amine] gave an IC50 of less than 50 nM.

In the case of `N[C@H](CNc1nc(-c2ccccc2F)c(-c2ccc3cnccc3c2)s1)Cc1ccc(F)cc1` [Example 106, N—((S)-2-Amino-3-(4-fluorophenyl)propyl)-4-(2-fluorophenyl)-5-(isoquinolin-6-yl)thiazol-2-amine], the IC50 is reported as 50 to 1000 nM.

`N[C@H](CNc1nc(-c2ccccc2F)c(-c2ccc3c(c2)CC(=O)N3)s1)Cc1ccc(C(F)(F)F)cc1` [Example 107, 5-(2-((S)-2-Amino-3-(4-(trifluoromethyl)phenyl)-propylamino)-4-(2-fluorophenyl)thiazol-5-yl)indolin-2-one] showed an IC50 of 1000 to 10000 nM.

For `N[C@H](CNc1ncc(-c2cc3ccncc3s2)s1)Cc1ccc(C(F)(F)F)cc1` [Example 108, N—((S)-2-amino-3-(4-(trifluoromethyl)phenyl)propyl)-5-(thieno[2,3-c]pyridin-2-yl)thiazol-2-amine], the IC50 was less than 50 nM.

`C[C@@H](c1ccc(C(F)(F)F)cc1)[C@H](N)CNc1ncc(-c2ccc3[nH]c(=O)oc3c2)s1` [Example 109, 6-(2-((2S,3S)-2-Amino-3-(4-(trifluoromethyl)phenyl)butylamino)-thiazol-5-yl)benzo[d]oxazol-2(3H)-one] was tested, and the IC50 was less than 50 nM.

`C[C@@H](c1ccc(C(F)(F)F)cc1)[C@H](N)CNc1ncc(-c2ccc3cnccc3c2)s1` [Example 110, N-((2S,3S)-2-Amino-3-(4-(trifluoromethyl)phenyl)butyl)-5-(isoquinolin-6-yl)thiazol-2-amine] was tested, and the IC50 was less than 50 nM.

In the case of `N[C@H](CNc1nc(Br)c(-c2nc3ccncc3s2)s1)Cc1ccc(C(F)(F)F)cc1` [Example 111, N—((S)-2-Amino-3-(4-(trifluoromethyl)phenyl)propyl)-4-bromo-5-(thiazolo[5,4-c]pyridin-2-yl)thiazol-2-amine], the IC50 is reported as 50 to 1000 nM.

For `N[C@H](CNc1ncc(-c2cc3oc(=O)[nH]c3cc2F)s1)Cc1ccc(C(F)(F)F)cc1` [Example 112, 6-(2-((S)-2-Amino-3-(4-(trifluoromethyl)phenyl)propylamino)thiazol-5-yl)-5-fluorobenzo[d]oxazol-2(3H)-one], the IC50 was less than 50 nM.

`N[C@H](CNc1ncc(-c2ccc3c(c2)CC(=O)N3)s1)Cc1ccc(Cl)cc1Cl` [Example 113, 5-(2-((S)-2-Amino-3-(2,4-dichlorophenyl)propylamino)thiazol-5-yl)indolin-2-one] was tested, and the IC50 was 50 to 1000 nM.

For `N[C@H](CNc1ncc(-c2ccc3c(c2)CC(=O)N3)s1)Cc1ccc(Cl)c(Cl)c1` [Example 114, 5-(2-((S)-2-Amino-3-(3,4-dichlorophenyl)propylamino)thiazol-5-yl)indolin-2-one], the IC50 was less than 50 nM.

`N[C@H](CNc1ncc(-c2ccc3[nH]c(=O)oc3c2)s1)Cc1ccc(Cl)c(Cl)c1` [Example 115, 6-(2-((S)-2-Amino-3-(3,4-dichlorophenyl)propylamino)thiazol-5-yl)benzo[d]oxazol-2(3H)-one] was tested, and the IC50 was less than 50 nM.

Compound `Cc1ccc(C[C@H](N)CNc2ncc(-c3ccc4c(c3)CC(=O)N4)s2)cc1` [Example 116, 5-(2-((S)-2-Amino-3-p-tolylpropylamino)thiazol-5-yl)indolin-2-one] has an IC50 of 50 to 1000 nM.

`COC(=O)c1nc(NC[C@@H](N)Cc2ccc(C(F)(F)F)cc2)sc1-c1ccc2cnccc2c1` [Example 117, Methyl 2-((S)-2-amino-3-(4-(trifluoromethyl)phenyl)-propylamino)-5-(isoquinolin-6-yl)thiazole-4-carboxylate] was tested, and the IC50 was less than 50 nM.

In the case of `N[C@H](CNc1nc(-c2cnco2)c(-c2ccc3cnccc3c2)s1)Cc1ccc(C(F)(F)F)cc1` [Example 118, N—((S)-2-Amino-3-(4-(trifluoromethyl)phenyl)propyl)-5-(isoquinolin-6-yl)-4-(oxazol-5-yl)thiazol-2-amine], the IC50 is reported as 50 to 1000 nM.

`N[C@H](CNc1nc(C(=O)NCCO)c(-c2ccc3cnccc3c2)s1)Cc1ccc(C(F)(F)F)cc1` [Example 119, 2-((S)-2-Amino-3-(4-(trifluoromethyl)phenyl)-propylamino)-N-(2-hydroxyethyl)-5-(isoquinolin-6-yl)thiazole-4-carboxamide] was tested, and the IC50 was 1000 to 10000 nM.

With `CNC(=O)c1nc(NC[C@@H](N)Cc2ccc(C(F)(F)F)cc2)sc1-c1ccc2cnccc2c1` [Example 120, 2-((S)-2-amino-3-(4-(trifluoromethyl)phenyl)-propylamino)-5-(isoquinolin-6-yl)-N-methylthiazole-4-carboxamide] the IC50 was less than 50 nM.

`NC(=O)c1nc(NC[C@@H](N)Cc2ccc(C(F)(F)F)cc2)sc1-c1ccc2cnccc2c1` [Example 121, 2-((S)-2-amino-3-(4-(trifluoromethyl)phenyl)propylamino)-5-(isoquinolin-6-yl)thiazole-4-carboxamide] showed an IC50 of 1000 to 10000 nM.

For `COC(=O)c1nc(NC[C@@H](N)Cc2ccc(C(F)(F)F)cc2)sc1-c1ccc2c(c1)CC(=O)N2` [Example 122, Methyl 2-((S)-2-amino-3-(4-(trifluoromethyl)phenyl)propylamino)-5-(2-oxoindolin-5-yl)thiazole-4-carboxylate], the IC50 was 50 to 1000 nM.

With `N[C@H](CNc1nc(CO)c(-c2ccc3c(c2)CC(=O)N3)s1)Cc1ccc(C(F)(F)F)cc1` [Example 123, 5-(2-((S)-2-Amino-3-(4-(trifluoromethyl)phenyl)propylamino)-4-(hydroxymethyl)thiazol-5-yl)indolin-2-one] the IC50 was less than 50 nM.

With `COC(=O)c1nc(NC[C@@H](N)Cc2ccc(C(F)(F)F)cc2)sc1-c1ccc2[nH]c(=O)oc2c1` [Example 124, Methyl 2-((S)-2-Amino-3-(4-(trifluoromethyl)phenyl)propylamino)-5-(2-oxo-2,3-dihydrobenzo[d]oxazol-6-yl)thiazole-4-carboxylate] the IC50 was less than 50 nM.

Compound `N[C@H](CNc1nc(CO)c(-c2ccc3[nH]c(=O)oc3c2)s1)Cc1ccc(C(F)(F)F)cc1` [Example 125, 6-(2-((S)-2-Amino-3-(4-(trifluoromethyl)phenyl)propylamino)-4-(hydroxymethyl)thiazol-5-yl)benzo[d]oxazol-2(3H)-one] has an IC50 of less than 50 nM.

`N[C@H](CNc1ncc(-c2ccc3c(c2)CC(=O)N3)s1)Cc1ccc(F)c(F)c1` [Example 126, 5-(2-((S)-2-Amino-3-(3,4-difluorophenyl)propylamino)thiazol-5-yl)indolin-2-one] gave an IC50 of 50 to 1000 nM.

`N[C@H](CNc1ncc(-c2ccc3[nH]c(=O)oc3c2)s1)Cc1ccc(F)c(F)c1` [Example 127, 6-(2-((S)-2-Amino-3-(3,4-difluorophenyl)propylamino)thiazol-5-yl)benzo[d]oxazol-2(3H)-one] showed an IC50 of 50 to 1000 nM.

With `CC(=O)N[C@H](CNc1ncc(-c2ccc3c(c2)CC(=O)N3)s1)Cc1ccc(C(F)(F)F)cc1` [Example 128, N—((S)-1-(5-(2-Oxoindolin-5-yl)thiazol-2-ylamino)-3-(4-(trifluoro-methyl)phenyl)propan-2-yl)acetamide] the IC50 was 1000 to 10000 nM.

`COc1ccc(CC(N)CNc2ncc(-c3ccc4[nH]c(=O)oc4c3)s2)cc1F` (centres unmarked) [Example 129, 6-(2-(2-Amino-3-(3-fluoro-4-methoxyphenyl)propylamino)-thiazol-5-yl)benzo[d]oxazol-2(3H)-one] was tested, and the IC50 was 50 to 1000 nM.

Compound `COc1ccc(CC(N)CNc2ncc(-c3ccc4c(c3)CC(=O)N4)s2)cc1F` (centres unmarked) [Example 130, 5-(2-(2-Amino-3-(3-fluoro-4-methoxyphenyl)propylamino)thiazol-5-yl)indolin-2-one] has an IC50 of 50 to 1000 nM.

Compound `COc1ccc(CC(N)CNc2ncc(-c3ccc4cnccc4c3)s2)cc1F` (centres unmarked) [Example 131, N-(2-Amino-3-(3-fluoro-4-methoxyphenyl)propyl)-5-(isoquinolin-6-yl)thiazol-2-amine] has an IC50 of 50 to 1000 nM.

Work on `N[C@H](CNc1ncc(-c2ccc3cnccc3c2)s1)Cc1ccc(Cl)c(Cl)c1` [Example 132, N—((S)-2-Amino-3-(3,4-dichlorophenyl)propyl)-5-(isoquinolin-6-yl)thiazol-2-amine] yielded an IC50 of less than 50 nM.

`N[C@H](CNc1nc(C(F)(F)CO)c(-c2ccc3c(c2)CC(=O)N3)s1)Cc1ccc(C(F)(F)F)cc1` [Example 133, 5-(2-((S)-2-Amino-3-(4-(trifluoromethyl)phenyl)propylamino)-4-(1,1-difluoro-2-hydroxyethyl)thiazol-5-yl)indolin-2-one] was tested, and the IC50 was 1000 to 10000 nM.
